Earlier results on one compound are cited in patent US9687433B2, “Anhydrous depigmenting compositions comprising phenolic compounds” (Ecstasy LLC, priority 2015, dated 2017).

For the data set the following is noted: degraded to hydroquinone.

In the case of `Oc1ccc(OC2CCCCO2)cc1` (stereo not shown) [deoxyarbutin, 4-[(tetrahydro-2H-pyran-2-yl)oxy] phenol], the “stability in aqueous solutions” value is “thermolabile and acid sensitive”.
